Experimental data published in patent US8680139B2 (Progenra, priority 2009, dated 2014).
Values joined by “and” are separate entries in the source; they are usually repeats but may differ in a detail not shown here. Equal values may be shown once.

Molecular target: T1, USP7 (Homo sapiens, UniProt Q93009)
T1 construct: full length human USP7 protein; made in house
Test: USP7, Ub-PLA2 assay
Type: biochemical
Conditions: Ub-PLA2 / NBD C6-HPC fluorescence, 30 minute preincubation; read-out: EC50 for inhibition of USP7
Procedure: The purpose of this assay is to measure the inhibition of USP7 by various compounds of the invention synthesized according to the above-described methods. […] The vehicle control was 100% (v/v) DMSO. 1.6 μL aliquots of the diluted test compound and controls were dispensed into individual wells in a black walled 96 well plate. […] The data were normalized within a plate relative to the control wells using the equation % inhibition=(100−(((RFUcompound−RFUmean NEM) / (RFUmean DMSO−RFUmean NEM))×100)).

T1 sequence (Q93009 whole entry): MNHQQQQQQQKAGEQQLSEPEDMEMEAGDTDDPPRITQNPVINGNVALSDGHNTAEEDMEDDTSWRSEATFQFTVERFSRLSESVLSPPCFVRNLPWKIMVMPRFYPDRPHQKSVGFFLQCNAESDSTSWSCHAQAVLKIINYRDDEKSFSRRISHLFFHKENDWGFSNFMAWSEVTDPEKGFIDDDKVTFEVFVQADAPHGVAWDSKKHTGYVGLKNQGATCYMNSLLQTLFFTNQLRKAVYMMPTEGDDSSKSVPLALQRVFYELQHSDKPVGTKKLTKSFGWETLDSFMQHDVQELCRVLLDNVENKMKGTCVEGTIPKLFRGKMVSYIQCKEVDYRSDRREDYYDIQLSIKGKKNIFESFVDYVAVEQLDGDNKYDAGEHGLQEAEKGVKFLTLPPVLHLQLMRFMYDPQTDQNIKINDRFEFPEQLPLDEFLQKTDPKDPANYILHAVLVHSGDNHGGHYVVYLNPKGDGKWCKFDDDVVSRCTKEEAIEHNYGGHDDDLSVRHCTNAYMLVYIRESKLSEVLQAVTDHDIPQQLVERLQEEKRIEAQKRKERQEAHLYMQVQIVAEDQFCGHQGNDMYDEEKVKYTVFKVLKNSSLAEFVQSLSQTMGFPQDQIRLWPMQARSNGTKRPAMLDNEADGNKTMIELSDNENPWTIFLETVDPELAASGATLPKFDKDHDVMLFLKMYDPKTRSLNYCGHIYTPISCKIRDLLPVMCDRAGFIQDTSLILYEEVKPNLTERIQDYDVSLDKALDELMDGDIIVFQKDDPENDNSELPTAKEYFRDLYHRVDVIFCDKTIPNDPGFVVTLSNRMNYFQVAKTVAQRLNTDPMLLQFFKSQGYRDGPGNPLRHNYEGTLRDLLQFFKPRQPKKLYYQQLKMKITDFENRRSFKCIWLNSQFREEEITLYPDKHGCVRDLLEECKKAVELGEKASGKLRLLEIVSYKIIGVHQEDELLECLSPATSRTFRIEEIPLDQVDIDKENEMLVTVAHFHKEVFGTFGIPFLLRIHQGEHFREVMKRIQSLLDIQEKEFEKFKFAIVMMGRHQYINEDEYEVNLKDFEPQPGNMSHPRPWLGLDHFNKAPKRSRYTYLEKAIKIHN

EC50	SMILES
1000 to 10000 nM	CN(C)CCNC(=O)c1cc([N+](=O)[O-])c(Sc2c(Cl)cncc2Cl)s1 [Example 48, 5-[(3,5-dichloro-4-pyridyl)sulfanyl]-N-(2-dimethylaminoethyl)-4-nitro-thiophene-2-carboxamide]
≤ 1000 nM	CN(C)CCC(NC(=O)c1cc([N+](=O)[O-])c(Sc2c(Cl)cncc2Cl)s1)c1ccccc1 (centres unmarked) [Example 200, 5-((3,5-dichloropyridin-4-yl)thio)-N-(3-(dimethylamino)-1-phenylpropyl)-4-nitrothiophene-2-carboxamide]
1000 to 10000 nM	O=C(NCc1cccc(Cl)c1)c1cc([N+](=O)[O-])c(Sc2c(Cl)cncc2Cl)s1 [Example 57, N-(3-chlorobenzyl)-5-((3,5-dichloropyridin-4-yl)thio)-4-nitrothiophene-2-carboxamide]
≤ 1000 nM	COc1ccc(CNC(=O)c2cc([N+](=O)[O-])c(Sc3c(Cl)cncc3Cl)s2)cc1OC [Example 98, 5-((3,5-dichloropyridin-4-yl)thio)-N-(3,4-dimethoxybenzyl)-4-nitrothiophene-2-carboxamide]
≤ 1000 nM	CC(=O)Nc1cccc(CNC(=O)c2cc([N+](=O)[O-])c(Sc3c(Cl)cncc3Cl)s2)c1 [Example 122, N-(3-acetamidobenzyl)-5-((3,5-dichloropyridin-4-yl)thio)-4-nitrothiophene-2-carboxamide]
≤ 1000 nM	CC(O)c1ccc(NC(=O)c2cc([N+](=O)[O-])c(Sc3c(Cl)cncc3Cl)s2)cc1 (centres unmarked) [Example 131, 5-((3,5-dichloropyridin-4-yl)thio)-N-(4-(1-hydroxyethyl)phenyl)-4-nitrothiophene-2-carboxamide]
> 10000 nM	CC(O)c1cc([N+](=O)[O-])c(Sc2cccc(Cl)c2Cl)s1 (centres unmarked) [Example 19, 1-[5-(2,3-dichlorophenyl)sulfanyl-4-nitro-2-thienyl]ethanol]
1000 to 10000 nM	CC(=O)c1cc([N+](=O)[O-])c(Sc2ccccc2C(F)(F)F)s1 [Example 4, 1-{4-Nitro-5-[2-(trifluoromethyl)phenylsulfanyl]-2-thienyl}ethanone]
1000 to 10000 nM	CC(=O)c1cc([N+](=O)[O-])c(Sc2ccc([N+](=O)[O-])cc2)s1 [Example 13, 1-[4-nitro-5-(4-nitrophenylsulfanyl)-2-thienyl]ethanone]
≤ 1000 nM	COc1ccc(Cl)cc1NC(=O)c1cc([N+](=O)[O-])c(Sc2c(Cl)cncc2Cl)s1 [Example 130, N-(5-chloro-2-methoxyphenyl)-5-((3,5-dichloropyridin-4-yl)thio)-4-nitrothiophene-2-carboxamide]
≤ 1000 nM	O=C(Nc1ccc2c(c1)OCO2)c1cc([N+](=O)[O-])c(Sc2c(Cl)cncc2Cl)s1 [Example 158, N-(benzo[d][1,3]dioxol-5-yl)-5-((3,5-dichloropyridin-4-yl)thio)-4-nitrothiophene-2-carboxamide]
≤ 1000 nM	CSCCCNC(=O)c1cc([N+](=O)[O-])c(Sc2c(Cl)cncc2Cl)s1 [Example 194, 5-((3,5-dichloropyridin-4-yl)thio)-N-(3-(methylthio)propyl)-4-nitrothiophene-2-carboxamide]
1000 to 10000 nM	O=C(c1cc([N+](=O)[O-])c(Sc2c(Cl)cncc2Cl)s1)N1CCC(CO)CC1 [Example 73, (5-((3,5-dichloropyridin-4-yl)thio)-4-nitrothiophen-2-yl)(4-(hydroxymethyl)piperidin-1-yl)methanone]
≤ 1000 nM	O=C(Nc1cccc(F)c1)c1cc([N+](=O)[O-])c(Sc2c(Cl)cncc2Cl)s1 [Example 138, 5-((3,5-dichloropyridin-4-yl)thio)-N-(3-fluorophenyl)-4-nitrothiophene-2-carboxamide]
> 10000 nM	CC(=O)c1cc([N+](=O)[O-])c([S+]([O-])c2ccc(Cl)cc2Cl)s1 (centres unmarked) [Example 34, 1-[5-(2,4-dichlorophenyl)sulfinyl-4-nitro-2-thienyl]ethanone]
1000 to 10000 nM	COc1ccccc1CNC(=O)c1cc([N+](=O)[O-])c(Sc2c(Cl)cncc2Cl)s1 [Example 51, 5-((3,5-dichloropyridin-4-yl)thio)-N-(2-methoxybenzyl)-4-nitrothiophene-2-carboxamide]
≤ 1000 nM	CN1CCC(CNC(=O)c2cc([N+](=O)[O-])c(Sc3c(Cl)cncc3Cl)s2)CC1 [Example 190, 5-((3,5-dichloropyridin-4-yl)thio)-N-((1-methylpiperidin-4-yl)methyl)-4-nitrothiophene-2-carboxamide]

The remaining lines, values behind:

SMILES	EC50
CC(C)(C)OC(=O)N1CCC(NC(=O)c2cc([N+](=O)[O-])c(Sc3c(Cl)cncc3Cl)s2)CC1 [Example 85, tert-butyl 4-(5-((3,5-dichloropyridin-4-yl)thio)-4-nitrothiophene-2-carboxamido)piperidine-1-carboxylate]	1000 to 10000 nM
O=C(NCc1ccc(Cl)nc1)c1cc([N+](=O)[O-])c(Sc2c(Cl)cncc2Cl)s1 [Example 162, N-((6-chloropyridin-3-yl)methyl)-5-((3,5-dichloropyridin-4-yl)thio)-4-nitrothiophene-2-carboxamide]	≤ 1000 nM
O=C(NC1CCCCC1)c1cc([N+](=O)[O-])c(Sc2c(Cl)cncc2Cl)s1 [Example 154, N-cyclohexyl-5-((3,5-dichloropyridin-4-yl)thio)-4-nitrothiophene-2-carboxamide]	≤ 1000 nM
CCOC(=O)c1cc([N+](=O)[O-])c(Sc2cccc(Cl)c2Cl)s1 [Example 41, Ethyl 5-(2,3-dichlorophenylsulfanyl)-4-nitrothiophene-2-carboxylate]	> 10000 nM
CN1CCC(NC(=O)c2cc([N+](=O)[O-])c(Oc3c(Cl)cccc3Cl)s2)CC1 [Example 261, 5-(2,6-dichlorophenoxy)-N-(1-methylpiperidin-4-yl)-4-nitrothiophene-2-carboxamide]	> 10000 nM
CC(=O)c1cc([N+](=O)[O-])c(Sc2ccccc2Cl)s1 [Example 1, 1-[5-(2-Chlorophenylsulfanyl)-4-nitro-2-thienyl]ethanone]	> 10000 nM
O=C(NCCc1ccccc1)c1cc([N+](=O)[O-])c(Sc2c(Cl)cncc2Cl)s1 [Example 96, 5-((3,5-dichloropyridin-4-yl)thio)-4-nitro-N-phenethylthiophene-2-carboxamide]	≤ 1000 nM
O=C(Nc1ccc(F)cc1F)c1cc([N+](=O)[O-])c(Sc2c(Cl)cncc2Cl)s1 [Example 143, 5-((3,5-dichloropyridin-4-yl)thio)-N-(2,4-difluorophenyl)-4-nitrothiophene-2-carboxamide]	≤ 1000 nM
O=C(NCc1ccccc1)c1cc([N+](=O)[O-])c(Sc2c(Cl)cncc2Cl)s1 [Example 45, N-benzyl-5-[(3,5-dichloro-4-pyridyl)sulfanyl]-4-nitro-thiophene-2-carboxamide]	1000 to 10000 nM
O=C(NCc1ccc(OC(F)(F)F)cc1)c1cc([N+](=O)[O-])c(Sc2c(Cl)cncc2Cl)s1 [Example 114, 5-((3,5-dichloropyridin-4-yl)thio)-4-nitro-N-(4-(trifluoromethoxy)benzyl)thiophene-2-carboxamide]	≤ 1000 nM
CC(=O)c1cc([N+](=O)[O-])c(Sc2c(F)c(F)c(Cl)c(F)c2F)s1 [Example 272, 1-(5-((4-chloro-2,3,5,6-tetrafluorophenyl)thio)-4-nitrothiophen-2-yl)ethanone]	1000 to 10000 nM and > 10000 nM
O=C(Nc1ccc(F)cc1)c1cc([N+](=O)[O-])c(Sc2c(Cl)cncc2Cl)s1 [Example 136, 5-((3,5-dichloropyridin-4-yl)thio)-N-(4-fluorophenyl)-4-nitrothiophene-2-carboxamide]	≤ 1000 nM
O=C(NC1CCCNC1=O)c1cc([N+](=O)[O-])c(Sc2c(Cl)cncc2Cl)s1 (centres unmarked) [Example 95, 5-((3,5-dichloropyridin-4-yl)thio)-4-nitro-N-(2-oxopiperidin-3-yl)thiophene-2-carboxamide]	1000 to 10000 nM
O=C(Nc1ccccc1)c1cc([N+](=O)[O-])c(Sc2c(Cl)cncc2Cl)s1 [Example 116, 5-((3,5-dichloropyridin-4-yl)thio)-4-nitro-N-phenylthiophene-2-carboxamide]	≤ 1000 nM
O=C(NCC(=O)N1CCC(CO)CC1)c1cc([N+](=O)[O-])c(Sc2c(Cl)cncc2Cl)s1 [Example 215, 5-((3,5-dichloropyridin-4-yl)thio)-N-(2-(4-(hydroxymethyl)piperidin-1-yl)-2-oxoethyl)-4-nitrothiophene-2-carboxamide]	1000 to 10000 nM
O=C(NCc1ccc(Br)cc1)c1cc([N+](=O)[O-])c(Sc2c(Cl)cncc2Cl)s1 [Example 118, N-(4-bromobenzyl)-5-((3,5-dichloropyridin-4-yl)thio)-4-nitrothiophene-2-carboxamide]	≤ 1000 nM
CN1CCC(NC(=O)c2cc([N+](=O)[O-])c(Oc3c(Cl)cncc3Cl)s2)CC1 [Example 259, 5-((3,5-dichloropyridin-4-yl)oxy)-N-(1-methylpiperidin-4-yl)-4-nitrothiophene-2-carboxamide]	> 10000 nM
CC(=O)c1cc([N+](=O)[O-])c(Sc2cccc3ccccc23)s1 [Example 5, 1-[5-(Naphth-1-ylsulfanyl)-4-nitro-2-thienyl]ethanone]	> 10000 nM
COCCCNC(=O)c1cc([N+](=O)[O-])c(Sc2c(Cl)cncc2Cl)s1 [Example 119, 5-((3,5-dichloropyridin-4-yl)thio)-N-(3-methoxypropyl)-4-nitrothiophene-2-carboxamide]	≤ 1000 nM
CCCN1CCC(NC(=O)c2cc([N+](=O)[O-])c(Sc3c(Cl)cncc3Cl)s2)CC1 [Example 230, 5-((3,5-dichloropyridin-4-yl)thio)-4-nitro-N-(1-propylpiperidin-4-yl)thiophene-2-carboxamide]	≤ 1000 nM
O=C(NCc1cccc(OC(F)F)c1)c1cc([N+](=O)[O-])c(Sc2c(Cl)cncc2Cl)s1 [Example 145, 5-((3,5-dichloropyridin-4-yl)thio)-N-(3-(difluoromethoxy)benzyl)-4-nitrothiophene-2-carboxamide]	≤ 1000 nM
